Laboratory results from the NIST ThermoML archive (doi:10.1021/je700373r).

Test: xn = mol fraction of the nth substance listed
Details: Fluid (supercritical or subcritical phases), Vibrating tube method

CC1=C(/C=C/C(C)=C/C=C/C(C)=C/C=C/C=C(C)/C=C/C=C(C)/C=C/C2=C(C)CCCC2(C)C)C(C)(C)CCC1 [β-carotene] + O=C=O
mass density [kg/m3]
Details | x1 = 1.5e-06 | x1 = 2.2e-06 | x1 = 2.9e-06 | x1 = 4.3e-06 | x1 = 4.8e-06 | x1 = 5.5e-06 | x1 = 6.5e-06
308.15 K, 10000 kPa | 717.5 | 717.7 | 717.9 | 717.6 | 717.8 | 718.3 | 717.8
308.15 K, 15000 kPa | 816.3 | 816.4 | 816.5 | 816.4 | 816.4 | 816.7 | 816.4
308.15 K, 20000 kPa | 866.3 | 866.3 | 866.3 | 866.4 | 866.4 | 866.5 | 866.4
308.15 K, 30000 kPa | 929.1 | 929.1 | 929.1 | 929.1 | 929.3 | 929.2 | 929.1
308.15 K, 40000 kPa | 971.8 | 971.9 | 971.9 | 971.9 | 972 | 972 | 971.9
313.15 K, 10000 kPa | 636.7 | 637.3 | 637.2 | 637.2 | 637.7 | 637.8 | 637.3
313.15 K, 15000 kPa | 781.5 | 781.6 | 781.6 | 781.6 | 781.8 | 781.9 | 781.6
313.15 K, 20000 kPa | 840.4 | 840.4 | 840.4 | 840.4 | 840.6 | 840.7 | 840.4
313.15 K, 30000 kPa | 909.9 | 909.9 | 909.9 | 909.9 | 910 | 910.1 | 909.9
313.15 K, 40000 kPa | 955.7 | 955.7 | 955.7 | 955.7 | 955.8 | 955.9 | 955.7
323.15 K, 10000 kPa | 398.3 | 397.9 | 398.9 | 398.2 | 398.4 | 398.5 | 398.2
323.15 K, 15000 kPa | 702 | 701.8 | 702.1 | 702 | 702.1 | 702.2 | 702
323.15 K, 20000 kPa | 785 | 784.9 | 785.1 | 785 | 785.2 | 785.3 | 785
323.15 K, 30000 kPa | 870.5 | 870.5 | 870.5 | 870.5 | 870.6 | 870.7 | 870.5
323.15 K, 40000 kPa | 922.9 | 923 | 923 | 923 | 923 | 923.1 | 923
333.15 K, 10000 kPa | 296.5 | 297.2 | 296.7 | 296.6 | 296.9 | 297 | 296.6
333.15 K, 15000 kPa | 607.3 | 607.7 | 607.7 | 607.4 | 607.7 | 607.8 | 607.4
333.15 K, 20000 kPa | 724.5 | 724.7 | 724.7 | 724.7 | 724.7 | 725 | 724.6
333.15 K, 30000 kPa | 829.7 | 829.7 | 829.7 | 829.7 | 829.8 | 829.9 | 829.7
333.15 K, 40000 kPa | 889.8 | 889.8 | 889.9 | 889.9 | 890 | 890 | 889.9
